Target: Elastase (Pseudomonas aeruginosa (strain ATCC 15692 / DSM 22644 / CIP 104116 / JCM 14847 / LMG 12228 / 1C / PRS 101 / PAO1), UniProt P14756)
Assay: Antagonist activity at Pseudomonas aeruginosa LasB using Abz-Ala-Gly-Leu-Ala-p-Nitro-Benzyl-Amide as substrate incubated for 30 mins prior to substrate addition by FRET assay

Sequence of Elastase (P14756 whole entry): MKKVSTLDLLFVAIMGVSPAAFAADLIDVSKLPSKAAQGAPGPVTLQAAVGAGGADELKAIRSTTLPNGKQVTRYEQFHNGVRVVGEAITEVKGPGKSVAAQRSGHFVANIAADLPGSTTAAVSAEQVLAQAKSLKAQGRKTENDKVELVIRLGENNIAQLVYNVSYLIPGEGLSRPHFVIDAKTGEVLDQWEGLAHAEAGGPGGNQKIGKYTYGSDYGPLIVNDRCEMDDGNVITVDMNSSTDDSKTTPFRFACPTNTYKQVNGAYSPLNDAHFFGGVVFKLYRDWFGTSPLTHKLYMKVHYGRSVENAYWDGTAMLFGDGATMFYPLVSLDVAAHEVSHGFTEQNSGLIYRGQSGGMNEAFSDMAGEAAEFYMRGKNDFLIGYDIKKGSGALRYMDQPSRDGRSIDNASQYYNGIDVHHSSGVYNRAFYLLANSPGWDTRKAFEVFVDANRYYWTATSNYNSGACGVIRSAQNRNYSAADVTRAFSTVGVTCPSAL

Row | SMILES | IC50 [µM]
1 | Cc1c(O)c(=S)ccn1C | 80.6
2 | CCc1c(O)c(=S)ccn1CC | 392

Reference: BindingDB's records for doi:10.1021/ml300128f (The Scripps Research Institute, 2012)
